Data on 2 molecules can be found in US11419878B2, “Medicine obtained by combining FXR agonist and ARB” (Intercept Pharmaceuticals, Inc., priority 2016, dated 2022).

Experiment [1] has as its system α-smooth muscle actin (α-SMA). The experiment is described as follows: Rat NASH model, immunohistological staining of liver sections with α-SMA antibody (HSC activation). Format: in vivo. The following applies: OLETF rats, PS 8 weeks, obeticholic acid 30 mg/kg/day and/or losartan 30 mg/kg/day oral; for α-SMA index (α-SI) compared to the positive control group: p<0.01. The method, then: (§1) Using the liver sections from the rats in the various groups obtained in working example 1, an immunohistochemical study by immunohistological staining with α-smooth muscle actin (α-SMA) antibody and a quantitative analysis of transforming growth factor-β1 TGF-β1) and collagen (α1(I) procollagen) mRNA expression were conducted. α-SMA is known to be an indicator (marker) of activation of hepatic stellate cells (HSCs) (also known as hepatic star cells). Moreover, activation of hepatic stellate cells (HSC), overproduction of TGF-β1 (a fibrosis-promoting cytokine) accompanying said activation, and overproduction of extracellular matrix components such as collagen are thought to play a central role in the mechanism of progressive hepatic fibrosis in NASH. For this reason, mRNA expression of TGF-β1 and collagen (α1(I) procollagen) can be a fibrosis indicator (marker).
Using the same method as described under [Histological analysis] in working example 1 above, except that immunohistological staining with α-SMA antibody was used instead of Sirius Red staining, a comparison of the micrographs among the various groups and a semiquantitative analysis of the immunohistochemical characteristics of the collected stained section images were carried out, and the blocking effect of obeticholic acid and losartan (administration groups, combined administration group) on HSC activation in the progression of hepatic fibrosis was evaluated.

For experiment [2], the system named is TGF-β1. Put plainly: Rat NASH model, RT-PCR of hepatic TGF-β1 mRNA expression. Type of experiment: in vivo. As to conditions: OLETF rats, PS 8 weeks, obeticholic acid 30 mg/kg/day and/or losartan 30 mg/kg/day oral. As for the experimental part:
as §1
(§2) A comparative study was conducted by analyzing TGF-β1 and collagen (α1(I) procollagen) mRNA expression in the livers of the rates of the various groups of working example 1 by means of the quantitative real-time polymerase chain reaction (RT-PCR). Quantitation of the mRNA expression levels by RT-PCR was conducted on a StepOne Plus™ system (manufactured by Applied Biosystems®) using the fluorescent dye SYBR® Green

Experiment [3] concerns α1(I) procollagen. The experiment is described as follows: Rat NASH model, RT-PCR of hepatic α1(I) procollagen mRNA expression. Format: in vivo. As to conditions: OLETF rats, PS 8 weeks, obeticholic acid 30 mg/kg/day and/or losartan 30 mg/kg/day oral. As for the experimental part: as §1, §2
The test system of experiment [4] is TGF-β1. The experiment is described as follows: HHSC fibrosis marker gene expression, RT-PCR, TGF-β1. Format: cell-based, human. The following applies: AT-II 10^-6M + LPS 10^-5M; ARB 10^-6M, obeticholic acid 5×10^-6M; 24 hours; monotherapy vs G2AL, combination vs monotherapy groups. The method, then:
(§3) The various combined effects of obeticholic acid and three types of ARBs (losartan, valsartan, and candesartan) were confirmed in an in vitro cell system experiment. Specifically, using human hepatic stellate cells (HHSC), which are implicated in the main mechanism of progression of hepatic fibrosis in NASH, the effects of administration of obeticholic acid in combination with the three ARBs of inhibiting HHSC proliferation capacity and the expression of fibrosis markers were evaluated according to the following method. Human hepatic stellate cells (HHSC) (also referred to as human hepatic star cells) Obeticholic acid (obtained from Intercept Pharmaceuticals, Inc. via Sumitomo Dainippon Pharma Co., Ltd.) was used as an FXR agonist, and commercial losartan (potassium salt of losartan; referred to in this working example simply as “losartan”) and valsartan and candesartan ([…] of candesartan; referred to in this working example simply as “candesartan”) were used as ARBs. Angiotensin II (AT-II) and/or lipopolysaccharide (LPS) were used (both AT1-mediated AT-II signalling and TLR4-mediated LPS signaling are known to play major roles in HSC activation and the progression of hepatic fibrosis). With respect to the effect of inhibiting fibrosis marker gene expression, collagen production capacity and TGF-β production capacity were evaluated by the RT-PCR method. 1) HHSCs were inoculated onto a 6-well plate in the amount of 300,000 cells/2 ml and allowed to proliferate in 1% FBS DMEM medium for 24 hours. 2) After 24 hours, the cells were divided into the following 7 groups and transferred to culture medium after adding the following drugs and/or reagents. Losartan was used as an ARB. Negative control group (G1): No drugs added (control) […] AT-II (10^-6M) Positive control group L […]): LPS (10^-5M) Positive control group AL ([…]): (10^-6M)+LPS (10^-5M) Obeticholic acid administration (G3): AT-II (10^-6M)+LPS (10^-5M)+obeticholic acid (5×10^-6M) ARB administration (G4): AT-II (10^-6M)+LPS (10^-5M)+ARB (10^-6M) Obeticholic acid+ARB combined administration (G5): AT-II (10^-6M)+LPS (10^-5M)+obeticholic acid (5×10^-6M)+ARB (10^-6M) […] Evaluations were conducted in the five groups G1, G2AL, G3, G4, and G5.

In experiment [5] the test system is α1(I) procollagen. The experiment is described as follows: HHSC fibrosis marker gene expression, RT-PCR, α1(I) procollagen. Type of experiment: cell-based, human. As to conditions: AT-II 10^-6M + LPS 10^-5M; ARB 10^-6M, obeticholic acid 5×10^-6M; 24 hours; monotherapy vs G2AL, combination vs monotherapy groups. The method, then:
as §3

With `CCCCc1nc(Cl)c(CO)n1Cc1ccc(-c2ccccc2-c2nn[nH]n2)cc1` [losartan], in experiment [1], the “increase in activated hepatic stellate cells (Ac-HSCs), micrographs of α-SMA stained sections” value is reported as “moderately inhibited” and the “α-SMA index (α-SI) compared to the positive control group” value is “moderate but significant decreases”. Besides, the “TGF-β1 mRNA expression in liver compared to the positive control group” value with TGF-β1 [2] is recorded as “moderate decreasing tendency”. Moreover, the “α1(I) procollagen mRNA expression in liver compared to the positive control group” value in the experiment with α1(I) procollagen [3] is on record as “moderate decreasing tendency”. Moreover, in the experiment on TGF-β1 [4], the “TGF-β1 mRNA expression induced by AT-II and LPS in HHSC” value is “statistically significant inhibition”. Also, the “α1(I)-procollagen mRNA expression induced by AT-II and LPS in HHSC” value with α1(I) procollagen [5] is on record as “statistically significant inhibition”.
For `CC[C@H]1[C@@H](O)[C@@H]2[C@H](CC[C@]3(C)[C@@H]([C@H](C)CCC(=O)O)CC[C@@H]23)[C@@]2(C)CC[C@@H](O)C[C@@H]12` [obeticholic acid, 3α,7α-dihydroxy-6α-ethyl-5β-cholan-24-oic acid], in experiment [1], the “increase in activated hepatic stellate cells (Ac-HSCs), micrographs of α-SMA stained sections” value is given as “moderately inhibited” and the “α-SMA index (α-SI) compared to the positive control group” value is listed as “moderate but significant decreases”. The “TGF-β1 mRNA expression in liver compared to the positive control group” value in the experiment on TGF-β1 [2] is recorded as “moderate decreasing tendency”. In the experiment with α1(I) procollagen [3], the “α1(I) procollagen mRNA expression in liver compared to the positive control group” value is given as “moderate decreasing tendency”. The “TGF-β1 mRNA expression induced by AT-II and LPS in HHSC” value in the experiment with TGF-β1 [4] is “statistically significant inhibition”. For the same molecule, the “α1(I)-procollagen mRNA expression induced by AT-II and LPS in HHSC” value in the experiment on α1(I) procollagen [5] is “statistically significant inhibition”.
